From publication PMC3057186, “Identification and characterization of seven new exon 11-associated splice variants of the rat mu opioid receptor gene, OPRM1” (Molecular Pain, 2011)

Legend:
Test in all cases: [3H]DAMGO saturation binding, CHO membranes
rMOR-1i2 = target: T1, rMOR-1i2 (Rattus norvegicus, UniProt B8Q1M0)
T1 construct: gene Oprm1; exon 11-associated transcript predicting the same protein as rMOR-1 (AUG in exon 1a)

rMOR-1H1 = target: T2, rMOR-1H1 (Rattus norvegicus, UniProt B8Q1M0)
T2 construct: gene Oprm1; exon 11-associated transcript predicting the same protein as rMOR-1 (AUG in exon 1a)
T2 sequence (B8Q1M0 1-398): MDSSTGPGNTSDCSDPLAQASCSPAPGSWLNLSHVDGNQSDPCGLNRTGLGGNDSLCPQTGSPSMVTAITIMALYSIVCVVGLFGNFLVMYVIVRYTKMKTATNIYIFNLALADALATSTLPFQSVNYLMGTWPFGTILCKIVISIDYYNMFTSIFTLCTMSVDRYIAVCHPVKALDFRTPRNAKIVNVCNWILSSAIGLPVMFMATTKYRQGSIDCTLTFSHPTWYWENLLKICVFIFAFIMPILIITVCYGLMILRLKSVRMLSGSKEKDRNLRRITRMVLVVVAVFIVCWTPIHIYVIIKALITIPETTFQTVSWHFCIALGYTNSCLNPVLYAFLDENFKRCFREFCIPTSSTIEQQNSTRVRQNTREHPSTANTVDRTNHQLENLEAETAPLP

rMOR-1H2 = target: T3, rMOR-1H2 (Rattus norvegicus, UniProt D2CKI5)
T3 construct: gene Oprm1; 7 TM
T3 sequence (D2CKI5 1-448): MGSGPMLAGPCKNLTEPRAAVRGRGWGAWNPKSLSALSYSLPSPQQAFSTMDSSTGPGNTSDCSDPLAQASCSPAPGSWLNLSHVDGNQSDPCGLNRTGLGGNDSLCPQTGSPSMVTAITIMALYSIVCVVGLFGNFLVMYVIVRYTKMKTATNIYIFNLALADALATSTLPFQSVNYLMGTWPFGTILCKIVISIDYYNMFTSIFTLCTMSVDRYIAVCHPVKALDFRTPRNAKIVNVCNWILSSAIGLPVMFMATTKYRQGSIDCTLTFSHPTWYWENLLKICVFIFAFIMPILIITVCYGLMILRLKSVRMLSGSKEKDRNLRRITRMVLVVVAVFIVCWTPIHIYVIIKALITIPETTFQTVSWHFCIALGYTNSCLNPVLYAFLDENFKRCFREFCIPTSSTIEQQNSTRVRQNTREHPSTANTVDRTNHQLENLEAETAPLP

T1 sequence (B8Q1M0 1-398): as the sequence (B8Q1M0 1-398) above

## C[C@@H](NC(=O)[C@@H](N)Cc1ccc(O)cc1)C(=O)NCC(=O)N(C)[C@@H](Cc1ccccc1)C(=O)NCCO [DAMGO]
rMOR-1i2
  Kd: 0.36 ± 0.04 nM
rMOR-1H1
  Kd: 0.51 ± 0.05 nM
rMOR-1H2
  Kd: 0.37 ± 0.02 nM
